Laboratory results published in the supplement of paper PMC10307832.

Assays:
Assay in all cases: relative viability (nuclei count vs DMSO), 5 days (fraction); higher = more cells survive
CX-5461 + Decitabine = compound: Cc1cnc(CNC(=O)c2c(=O)c3ccc(N4CCCN(C)CC4)nc3n3c2sc2ccccc23)cn1 [CX-5461] + Nc1ncn([C@H]2C[C@H](O)[C@@H](CO)O2)c(=O)n1 [Decitabine] (partner 2 µM)
Procedure, shortened: (§1)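 A single step with final 0.05% Triton X-100, 1% formaldehyde and 1 ug/ml Hoechst fixed the cells and stained nuclei 5 days after treatment. Lung cancer cell lines in 1536-well plates had been treated by pin tool the day after seeding with one drug alone or a fixed anchor-drug dose plus five library-drug doses (not always all listed) in √10 steps, and nuclei were counted on 4× images. Relative viability is the ratio of nuclei in treated wells to nuclei in vehicle wells, taken as the median of duplicate plates.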

CX-5461 + Pictilisib = compound: Cc1cnc(CNC(=O)c2c(=O)c3ccc(N4CCCN(C)CC4)nc3n3c2sc2ccccc23)cn1 [CX-5461] + CS(=O)(=O)N1CCN(Cc2cc3nc(-c4cccc5[nH]ncc45)nc(N4CCOCC4)c3s2)CC1 [Pictilisib] (partner 1 µM)
Procedure, shortened: as §1

IMD-0354 + AZD7762 = compound: O=C(Nc1cc(C(F)(F)F)cc(C(F)(F)F)c1)c1cc(Cl)ccc1O [IMD-0354] + NC(=O)Nc1cc(-c2cccc(F)c2)sc1C(=O)N[C@H]1CCCNC1 [AZD7762] (partner 0.2 µM)
Procedure, shortened: as §1

IMD-0354 + Trametinib = compound: O=C(Nc1cc(C(F)(F)F)cc(C(F)(F)F)c1)c1cc(Cl)ccc1O [IMD-0354] + CC(=O)Nc1cccc(-n2c(=O)n(C3CC3)c(=O)c3c(Nc4ccc(I)cc4F)n(C)c(=O)c(C)c32)c1 [Trametinib] (partner 0.02 µM)
Procedure, shortened: as §1

Cell Line | relative viability (CX-5461 + Decitabine; first compound 0.01 µM) | relative viability (CX-5461 + Decitabine; first compound 0.03162 µM) | relative viability (CX-5461 + Decitabine; first compound 0.1 µM) | relative viability (CX-5461 + Decitabine; first compound 0.3162 µM) | relative viability (CX-5461 + Decitabine; first compound 1 µM) | relative viability (CX-5461 + Pictilisib; first compound 0.01 µM) | relative viability (CX-5461 + Pictilisib; first compound 0.03162 µM) | relative viability (CX-5461 + Pictilisib; first compound 0.1 µM) | relative viability (CX-5461 + Pictilisib; first compound 0.3162 µM) | relative viability (CX-5461 + Pictilisib; first compound 1 µM) | relative viability (IMD-0354 + AZD7762; first compound 0.04 µM) | relative viability (IMD-0354 + AZD7762; first compound 0.1265 µM) | relative viability (IMD-0354 + AZD7762; first compound 0.4 µM) | relative viability (IMD-0354 + AZD7762; first compound 1.265 µM) | relative viability (IMD-0354 + AZD7762; first compound 4 µM) | relative viability (IMD-0354 + Trametinib; first compound 0.04 µM) | relative viability (IMD-0354 + Trametinib; first compound 0.1265 µM) | relative viability (IMD-0354 + Trametinib; first compound 0.4 µM) | relative viability (IMD-0354 + Trametinib; first compound 1.265 µM) | relative viability (IMD-0354 + Trametinib; first compound 4 µM)
NCI-H2405 | 0.829 | 0.779 | 0.773 | 0.64 | 0.608 | 0.427 | 0.468 | 0.419 | 0.259 | 0.413 | 0.964 | 0.829 | 0.514 | 0.29 | 0.414 | 0.753 | 0.625 | 0.518 | 0.283 | 0.277
NCI-H3122 | 0.407 | 0.387 | 0.354 | 0.515 | 0.417 | 0.558 | 0.657 | 0.617 | 0.533 | 0.608 | 1.05 | 1.05 | 0.623 | 0.271 | 0.133 | 0.215 | 0.223 | 0.178 | 0.252 | 0.147
PC-3 [JPC-3] | 0.801 |  | 0.842 | 0.801 | 0.77 | 0.82 | 0.857 | 0.829 | 0.697 | 0.75 | 1.01 | 0.751 | 0.64 | 0.291 | 0.355 | 0.825 | 0.676 | 0.65 | 0.399 | 0.267
PC-14 | 0.246 | 0.202 | 0.152 | 0.204 | 0.114 | 0.788 | 1.05 | 0.972 | 0.583 | 0.636 | 0.424 | 0.391 | 0.145 | 0.128 | 0.108 | 0.945 | 0.826 | 0.301 | 0.359 | 0.109
RERF-LC-KJ | 0.686 | 0.677 | 0.381 | 0.528 | 0.41 | 0.466 | 0.601 | 0.565 | 0.538 | 0.5 | 1.1 | 1 |  | 0.327 | 0.184 | 1.02 | 0.931 | 0.663 | 0.557 | 0.174
